Data reported in patent US20200308550A1, “TUMOR ORGANOID MODEL” (IMBA - INSTITUT FÜR MOLEKULARE BIOTECHNOLOGIE GMBH, priority 2017, published 2020).

tested on: GBM-1 neoplastic organoids including firefly luciferase; assay: Luciferase assay-based drug testing on neoplastic organoids; assay type: cell-based, human; settings: 1 μM, forty days after drug treatment, vs DMSO
Experimental: FIG. 13. […] Normalized luciferase activity was presented. Statistical analysis of quantifications was performed using one-way ANOVA with Dunnett's test. **, p<0.01.
For drug testing, neoplastic organoids were first grown for 2 months, followed by drug treatment for 40 days. […] After drug treatment, neoplastic organoids were trypsinized for single cell preparation, followed by FACS sorting analysis. Total cell numbers were counted to evaluate the cytotoxicity of the drugs.
In an effort toward adapting this method for large scale screening, we modified the neoplastic cerebral organoid system to include firefly luciferase for measurement of tumor size (FIG. 13a).

relative firefly luciferase activity (tumor size) | SMILES
only non-significant effects | C=CC(=O)Nc1cc2c(Nc3ccc(F)c(Cl)c3)ncnc2cc1OCCCN1CCOCC1 [Canertibib, Canertinib]
only non-significant effects | COc1cc2ncnc(Nc3ccc(F)c(Cl)c3)c2cc1OCCCN1CCOCC1 [Gefitinib]
only non-significant effects | CCOc1cc2ncc(C#N)c(Nc3ccc(F)c(Cl)c3)c2cc1NC(=O)/C=C/CN(C)C [Pelitinib]

SMILES | relative firefly luciferase activity (tumor size)
C#Cc1cccc(Nc2ncnc3cc(OCCOC)c(OCCOC)cc23)c1 [Erlotinib] | significantly reduced firefly luciferase activity
